Source: ChEMBL document CHEMBL1817669, “Design and pharmacological evaluation of PF-4840154, a non-electrophilic reference agonist of the TrpA1 channel” (Bioorg Med Chem Lett, 2011)
pEC50: −log10 of the molar value. In brackets after ≈: the same amount, converted by molar mass. Activity calls are given as the source filed them. The rule behind the calls is not given here.

Legend:
[1] = target: Transient receptor potential cation channel subfamily A member 1 (Rattus norvegicus) (UniProt Q6RI86); assay: Agonist activity at rat TRPA1 channel expressed in HEK293 cells assessed as calcium influx at 10 uM measured at every 1 second for 60 seconds by fluorescence analysis; assay type: functional, cell-based
Sequence of Transient receptor potential cation channel subfamily A member 1 (Rattus norvegicus) (Q6RI86 whole entry): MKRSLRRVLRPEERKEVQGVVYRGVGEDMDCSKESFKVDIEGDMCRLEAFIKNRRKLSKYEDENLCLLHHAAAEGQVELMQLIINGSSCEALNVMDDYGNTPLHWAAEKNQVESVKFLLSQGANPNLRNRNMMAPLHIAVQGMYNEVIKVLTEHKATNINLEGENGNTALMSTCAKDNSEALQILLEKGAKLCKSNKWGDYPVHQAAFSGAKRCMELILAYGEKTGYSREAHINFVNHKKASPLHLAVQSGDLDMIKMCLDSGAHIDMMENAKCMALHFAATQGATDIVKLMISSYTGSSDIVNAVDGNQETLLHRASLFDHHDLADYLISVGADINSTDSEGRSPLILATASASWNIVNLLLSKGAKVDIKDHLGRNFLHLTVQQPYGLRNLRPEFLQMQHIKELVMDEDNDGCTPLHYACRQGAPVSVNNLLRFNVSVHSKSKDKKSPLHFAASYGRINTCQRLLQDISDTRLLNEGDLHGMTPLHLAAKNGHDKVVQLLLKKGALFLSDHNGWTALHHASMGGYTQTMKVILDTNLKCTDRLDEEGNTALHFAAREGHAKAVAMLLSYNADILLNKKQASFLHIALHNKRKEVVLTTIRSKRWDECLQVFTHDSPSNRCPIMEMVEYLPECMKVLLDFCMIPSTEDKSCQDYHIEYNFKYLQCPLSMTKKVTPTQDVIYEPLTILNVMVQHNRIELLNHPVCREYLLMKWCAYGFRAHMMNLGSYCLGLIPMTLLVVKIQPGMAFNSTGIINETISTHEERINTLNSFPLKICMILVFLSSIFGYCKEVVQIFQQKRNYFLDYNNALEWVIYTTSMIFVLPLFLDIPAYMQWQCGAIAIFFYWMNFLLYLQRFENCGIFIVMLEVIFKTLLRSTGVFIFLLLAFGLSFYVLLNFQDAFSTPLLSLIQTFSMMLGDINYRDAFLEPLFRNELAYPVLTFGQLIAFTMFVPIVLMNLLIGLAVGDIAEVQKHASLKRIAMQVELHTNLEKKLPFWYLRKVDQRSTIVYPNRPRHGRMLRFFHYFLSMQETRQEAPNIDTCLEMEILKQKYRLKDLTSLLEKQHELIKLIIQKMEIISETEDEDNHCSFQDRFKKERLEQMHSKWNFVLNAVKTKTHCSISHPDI

[2] = target: Transient receptor potential cation channel subfamily A member 1 (Homo sapiens, UniProt O75762); assay: Agonist activity at human TRPA1 channel expressed in HEK293 cells assessed as calcium influx measured at every 1 second for 60 seconds by fluorescence analysis; assay type: functional, cell-based; settings: for EC50: hek293; for pEC50: read-out: EC50
Sequence of Transient receptor potential cation channel subfamily A member 1 (Homo sapiens, UniProt O75762) (O75762 whole entry): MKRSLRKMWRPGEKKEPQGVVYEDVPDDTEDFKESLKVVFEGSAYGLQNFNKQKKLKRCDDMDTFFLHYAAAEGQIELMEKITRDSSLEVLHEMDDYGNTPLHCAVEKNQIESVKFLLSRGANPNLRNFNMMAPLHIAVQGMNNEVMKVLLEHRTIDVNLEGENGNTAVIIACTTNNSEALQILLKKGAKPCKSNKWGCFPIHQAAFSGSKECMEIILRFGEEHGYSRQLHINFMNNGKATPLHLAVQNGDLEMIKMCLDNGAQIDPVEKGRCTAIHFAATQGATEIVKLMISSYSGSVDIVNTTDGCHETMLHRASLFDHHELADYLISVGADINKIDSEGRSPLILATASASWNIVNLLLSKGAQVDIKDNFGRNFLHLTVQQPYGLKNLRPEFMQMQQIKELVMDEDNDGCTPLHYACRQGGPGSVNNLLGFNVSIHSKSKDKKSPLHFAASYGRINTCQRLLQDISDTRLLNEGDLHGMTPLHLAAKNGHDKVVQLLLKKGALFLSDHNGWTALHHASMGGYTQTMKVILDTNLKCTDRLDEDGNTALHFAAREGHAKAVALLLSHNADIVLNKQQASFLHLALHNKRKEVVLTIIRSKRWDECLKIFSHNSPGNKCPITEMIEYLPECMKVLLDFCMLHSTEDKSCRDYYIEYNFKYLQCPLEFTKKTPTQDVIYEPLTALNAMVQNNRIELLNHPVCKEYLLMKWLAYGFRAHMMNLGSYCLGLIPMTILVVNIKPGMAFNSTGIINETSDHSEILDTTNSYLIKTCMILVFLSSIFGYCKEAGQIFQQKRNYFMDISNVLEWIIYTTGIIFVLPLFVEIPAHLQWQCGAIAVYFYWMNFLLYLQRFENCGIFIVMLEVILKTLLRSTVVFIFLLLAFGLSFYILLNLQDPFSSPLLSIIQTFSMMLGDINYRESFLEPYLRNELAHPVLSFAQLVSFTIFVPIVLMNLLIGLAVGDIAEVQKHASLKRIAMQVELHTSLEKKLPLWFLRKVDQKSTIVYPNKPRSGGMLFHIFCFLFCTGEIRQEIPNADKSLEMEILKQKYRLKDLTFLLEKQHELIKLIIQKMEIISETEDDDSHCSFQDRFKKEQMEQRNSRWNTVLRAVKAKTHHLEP

[3] = target: Transient receptor potential cation channel subfamily A member 1 (Rattus norvegicus, UniProt Q6RI86); assay: Agonist activity at rat TRPA1 channel expressed in HEK293 cells assessed as calcium influx measured at every 1 second for 60 seconds by fluorescence analysis; assay type: functional, cell-based
Sequence of Transient receptor potential cation channel subfamily A member 1 (Rattus norvegicus, UniProt Q6RI86) (Q6RI86 whole entry): as the sequence (Q6RI86 whole entry) above

[4] = target: Transient receptor potential cation channel subfamily V member 4 (Homo sapiens) (UniProt Q9HBA0); assay: Agonist activity at human TRPV4 receptor; assay type: functional
Sequence of Transient receptor potential cation channel subfamily V member 4 (Homo sapiens) (Q9HBA0 whole entry): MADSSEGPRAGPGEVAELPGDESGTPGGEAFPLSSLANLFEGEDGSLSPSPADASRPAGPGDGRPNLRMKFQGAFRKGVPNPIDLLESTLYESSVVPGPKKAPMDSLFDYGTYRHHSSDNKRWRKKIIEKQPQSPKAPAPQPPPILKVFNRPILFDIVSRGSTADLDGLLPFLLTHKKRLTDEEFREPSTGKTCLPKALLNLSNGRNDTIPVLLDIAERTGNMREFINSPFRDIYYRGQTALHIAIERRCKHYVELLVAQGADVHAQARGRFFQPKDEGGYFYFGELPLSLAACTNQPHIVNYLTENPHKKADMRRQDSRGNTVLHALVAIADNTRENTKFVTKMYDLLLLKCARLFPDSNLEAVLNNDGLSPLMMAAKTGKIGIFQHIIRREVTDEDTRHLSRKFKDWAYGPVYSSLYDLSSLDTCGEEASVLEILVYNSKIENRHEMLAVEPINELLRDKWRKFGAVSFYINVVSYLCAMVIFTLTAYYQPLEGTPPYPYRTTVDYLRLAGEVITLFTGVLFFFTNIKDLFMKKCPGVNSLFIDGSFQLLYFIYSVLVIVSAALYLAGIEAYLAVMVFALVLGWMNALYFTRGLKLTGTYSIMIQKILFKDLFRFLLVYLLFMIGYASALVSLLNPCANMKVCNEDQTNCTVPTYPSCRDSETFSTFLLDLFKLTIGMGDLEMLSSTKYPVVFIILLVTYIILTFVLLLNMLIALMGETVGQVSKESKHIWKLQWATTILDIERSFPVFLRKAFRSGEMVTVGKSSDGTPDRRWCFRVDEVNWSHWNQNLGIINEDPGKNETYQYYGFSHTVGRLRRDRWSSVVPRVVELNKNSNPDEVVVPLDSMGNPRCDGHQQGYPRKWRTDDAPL

[5] = target: Transient receptor potential cation channel subfamily V member 4 (Homo sapiens) (UniProt Q9HBA0); assay: Antagonist activity at human TRPV4 receptor; assay type: functional
[6] = target: Sodium-dependent noradrenaline transporter (Homo sapiens) (UniProt P23975); assay: Inhibition of noradrenaline transporter at 2.8 uM
[7] = target: Sodium-dependent dopamine transporter (Homo sapiens) (UniProt Q01959); assay: Inhibition of dopamine transporter at 1.6 uM
[8] = target: Transient receptor potential cation channel subfamily M member 8 (Homo sapiens) (UniProt Q7Z2W7); assay: Agonist activity at human TRPM8 receptor; assay type: functional
Sequence of Transient receptor potential cation channel subfamily M member 8 (Homo sapiens) (Q7Z2W7 whole entry, looked up): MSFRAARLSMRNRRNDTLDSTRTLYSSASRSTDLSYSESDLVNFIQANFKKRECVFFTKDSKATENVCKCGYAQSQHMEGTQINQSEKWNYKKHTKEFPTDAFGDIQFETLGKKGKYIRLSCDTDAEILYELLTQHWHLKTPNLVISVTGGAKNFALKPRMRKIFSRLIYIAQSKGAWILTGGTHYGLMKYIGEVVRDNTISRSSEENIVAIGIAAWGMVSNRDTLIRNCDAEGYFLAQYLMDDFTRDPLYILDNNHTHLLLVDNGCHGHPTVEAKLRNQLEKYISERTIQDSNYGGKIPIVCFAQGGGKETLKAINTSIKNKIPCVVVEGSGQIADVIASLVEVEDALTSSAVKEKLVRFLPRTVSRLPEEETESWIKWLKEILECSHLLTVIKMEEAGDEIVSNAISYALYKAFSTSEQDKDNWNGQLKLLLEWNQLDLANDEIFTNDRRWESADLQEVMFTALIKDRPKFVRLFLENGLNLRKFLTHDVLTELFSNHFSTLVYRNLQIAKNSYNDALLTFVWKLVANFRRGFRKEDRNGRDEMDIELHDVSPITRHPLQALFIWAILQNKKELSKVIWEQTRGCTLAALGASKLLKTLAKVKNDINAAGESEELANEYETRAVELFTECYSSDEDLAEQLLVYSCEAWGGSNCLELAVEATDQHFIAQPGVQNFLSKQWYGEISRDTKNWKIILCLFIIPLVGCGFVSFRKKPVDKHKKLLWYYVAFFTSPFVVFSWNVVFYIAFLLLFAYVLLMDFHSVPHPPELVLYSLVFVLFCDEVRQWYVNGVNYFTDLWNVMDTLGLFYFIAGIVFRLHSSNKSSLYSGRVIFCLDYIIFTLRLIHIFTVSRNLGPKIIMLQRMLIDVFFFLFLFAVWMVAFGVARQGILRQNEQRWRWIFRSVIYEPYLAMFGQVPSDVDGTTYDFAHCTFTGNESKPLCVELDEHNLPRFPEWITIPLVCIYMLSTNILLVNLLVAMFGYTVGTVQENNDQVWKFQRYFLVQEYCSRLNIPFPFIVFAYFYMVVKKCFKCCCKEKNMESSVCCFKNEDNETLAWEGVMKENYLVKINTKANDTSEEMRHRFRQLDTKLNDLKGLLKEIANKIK

[9] = target: D(3) dopamine receptor (Homo sapiens) (UniProt P35462); assay: Inhibition of dopamine D3 receptor at 1.9 uM
[10] = species: Mus musculus; assay: Antinociceptive activity against formalin-induced inflammatory pain in Trpa1-knock out CD1 mouse assessed as increase in time spent in paw licking at 30 nmol, intraplantar measured every 5 mins for 60 mins; assay type: functional, organism-based
[11] = target: Transient receptor potential cation channel subfamily M member 8 (Homo sapiens) (UniProt Q7Z2W7); assay: Antagonist activity at human TRPM8 receptor; assay type: functional
[12] = target: Transient receptor potential cation channel subfamily V member 1 (Homo sapiens) (UniProt Q8NER1); assay: Agonist activity at human TRPV1 receptor; assay type: functional
Sequence of Transient receptor potential cation channel subfamily V member 1 (Homo sapiens) (Q8NER1 whole entry): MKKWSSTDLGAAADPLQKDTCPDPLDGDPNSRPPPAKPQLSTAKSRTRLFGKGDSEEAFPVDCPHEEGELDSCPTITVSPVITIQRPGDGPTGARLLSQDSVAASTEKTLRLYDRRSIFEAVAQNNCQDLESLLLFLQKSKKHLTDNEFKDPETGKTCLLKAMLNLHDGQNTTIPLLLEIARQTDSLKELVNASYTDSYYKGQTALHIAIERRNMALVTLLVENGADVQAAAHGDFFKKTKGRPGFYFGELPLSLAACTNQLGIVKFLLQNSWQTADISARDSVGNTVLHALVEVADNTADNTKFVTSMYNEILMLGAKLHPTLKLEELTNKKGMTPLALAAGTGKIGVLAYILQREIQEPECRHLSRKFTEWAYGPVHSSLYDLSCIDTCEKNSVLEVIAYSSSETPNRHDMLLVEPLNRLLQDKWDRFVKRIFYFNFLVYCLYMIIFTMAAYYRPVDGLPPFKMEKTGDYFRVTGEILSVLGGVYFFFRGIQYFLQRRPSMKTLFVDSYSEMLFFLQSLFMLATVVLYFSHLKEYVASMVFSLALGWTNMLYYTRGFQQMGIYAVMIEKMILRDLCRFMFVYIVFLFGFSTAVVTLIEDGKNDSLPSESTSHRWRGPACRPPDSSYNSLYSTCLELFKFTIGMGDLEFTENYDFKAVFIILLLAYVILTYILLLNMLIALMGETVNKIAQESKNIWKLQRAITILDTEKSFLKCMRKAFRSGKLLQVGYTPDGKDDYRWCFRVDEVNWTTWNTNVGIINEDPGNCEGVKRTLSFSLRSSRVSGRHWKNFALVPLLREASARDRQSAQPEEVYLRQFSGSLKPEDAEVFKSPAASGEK

[13] = Inhibition of sigma receptor at 1.1 uM
[14] = tested on: Mus musculus; assay: Antinociceptive activity against formalin-induced inflammatory pain in Trpa1-positive CD1 mouse assessed as increase in time spent in paw licking at 30 nmol, intraplantar measured every 5 mins for 60 mins in pretreated with 100 mg/kg Trpa1 antagonist HC003031; assay type: functional, organism-based; set-up: dose 100 mg/kg
[15] = Aqueous solubility of the compound at pH 7.4; assay type: physicochemical
[16] = Inhibition of chloride channel at 1.5 uM
[17] = target: Transient receptor potential cation channel subfamily V member 1 (Homo sapiens) (UniProt Q8NER1); assay: Antagonist activity at human TRPV1 receptor; assay type: functional
[18] = species: Mus musculus; assay: Antinociceptive activity against formalin-induced inflammatory pain in Trpa1-positive CD1 mouse assessed as increase in time spent in paw licking at 30 nmol, intraplantar measured every 5 mins for 60 mins; assay type: functional, organism-based

| SMILES | EC50 [2] | pEC50 [2] | pEC50 [3] | also measured |
| --- | --- | --- | --- | --- |
| CCCCN1CCN(c2ncc(C(=O)NCc3ccccc3)c(NC3CC3)n2)CC1 | Not Active | – | – | activation [1]: 30% |
| O=C(NCc1ccccc1)c1cnc(N2CCN(CC3CCCOC3)CC2)nc1NC1CC1 (stereo not given) | – | 6.96 | 6.07 | – |
| CC(C)CNc1nc(N2CCN(Cc3ccccc3)CC2)ncc1C(=O)NCc1ccccn1 | Not Active | – | 5.65 | – |
| COCCNC(=O)c1cnc(N2CCN(Cc3ccccc3)CC2)nc1NCC(C)C | Not Active | – | 6.24 | – |
| CC(C)CNc1nc(N2CCN(Cc3ccccc3)CC2)ncc1C(=O)NCc1cccnc1 | – | 7.31 | 6.67 | – |
| CC(C)CNc1nc(N2CCN(CC3CCCOC3)CC2)ncc1C(=O)NCc1ccccc1 (stereo not given) | – | 7.64 | 7.01 | Activity [4]: inactive; Activity [5]: inactive; inhibition [6]: < 10%; inhibition [7]: < 10%; Activity [8]: inactive; inhibition [9]: < 10%; Activity [10]: inactive; Activity [11]: inactive; Activity [12]: inactive; inhibition [13]: < 10%; Activity [14]: inactive; solubility [15]: 6.4 µM (≈ 2.99 µg/mL); inhibition [16]: < 10%; Activity [17]: inactive; Activity [18]: Active |
| CC(C)CNc1nc(N2CCN(Cc3ccccc3)CC2)ncc1C(=O)NCc1ccccc1 | – | 7.10 | 6.76 | – |

Continued, in another order:

| EC50 [2] | pEC50 [2] | pEC50 [3] | SMILES | also measured |
| --- | --- | --- | --- | --- |
| Not Active | – | 5.25 | O=C(NCc1ccccc1)c1cnc(N2CCN(C(=O)c3ccccc3)CC2)nc1NC1CC1 | – |
| Not Active | – | 6.33 | O=C(NCc1ccccc1)c1cnc(N2CCN(Cc3ccccc3)CC2)nc1NC1CC1 | – |
| – | 7.57 | 6.73 | O=C(NCc1ccccc1)c1cnc(N2CCN(C(=O)c3c(F)cccc3F)CC2)nc1NC1CC1 | – |
